Legend:
ACH-2 cells = assay: PMA-induced HIV reactivation in ACH-2 cells, intracellular p24 staining; assay type: cell-based
Method: ACH2 cells and U1 cells were obtained through the NIH HIV Reagent Program, Division of AIDS, NIAID, NIH (contributed by Dr. Thomas Folks). […] In the HIV latency reactivation conditions, PMA (Phorbol 12-myristate 13-acetate, SigmaAldrich) was added at 100 ng/ml together with galunisertib or TGF-β1. After 18 hrs, cells were stained intracellularly for p24 using the KC57 antibody (NIH HIV Reagent Program) as previously described (74).

primary CD4+ T cells = assay: Primary CD4+ T cell model of HIV-1 latency, p24 ICS; assay type: cell-based, human; conditions: primary CD4+ T cells infected with HIV ADA; PMA 100 ng/ml; TGF-β1 10 ng/ml or galunisertib 1 μM
Method: Next, the impact of TGF-β1 on a primary model of HIV-1 latency was tested using freshly isolated CD4+ T cells. The experiment was based on the model by Berkhout and colleagues (50) with some modifications (FIG. 1F). Specifically, CD4+ T cells were isolated from HIV-1 uninfected, de-identified donor PBMC and activated them with PHA and IL-2 for 3 days before infection via spinoculation with HIV ADA. After extensive wash of the viral inoculum, cells were cultured 48 hrs in presence of T20 (enfuvirtide) to avoid viral spread beyond the cells with initial integrations. The overall initial infection achieved was very low despite the spinoculation step (˜0.1% of p24-gag+ cells, FIGS. 3A-3B).
Blood from de-identified donors was obtained from the New York Blood Bank and used as source of CD4 T cells for the primary model of HIV latency in vitro. Total CD4+ T cells were isolated with the CD4 T cells isolation kit (Miltenyi) and activated with 5 μg/ml of PHA and 50 U/ml of IL-2 for 3 days. After washing out the PHA, cells were infected with 200TCID50 of HIV-ADA (NIH HIV Reagent Program) in 12 or 24 wells/plates and spinoculated at 1200 g for 2 hrs at 25° C. After additional 3 hrs of incubation at 37° C., viral inoculum was washed and cells plated in presence of T20 (Enfurtivide acetate salt, 1 μM NIH AIDS reagent program). […]

[1] = Galunisertib plasma pharmacokinetics by LCMS; assay type: in vivo, rhesus macaques
Method: Eight naïve macaques (FIG. 9) were used to collect plasma and PBMC for PK/PD studies. 4 macaques received galunisertib (2.5 mg/kg, n=2 or 5 mg/kg, n=2) once and blood was collected at 1 hr, 3 hr and 6 hrs, 24 hrs and 48 hrs. 4 macaques received galunisertib (2.5 mg/kg, n=2 or 5 mg/kg, n=2) twice daily for 9 days and samples were collected 1 hr, 3 hr and 8 hrs after administration on day 1 and on day 9 right before and 1 hr and 3 and 6 hrs after the last administration. Plasma concentrations of galunisertib were measured by IMSERC (Integrated Molecular Structure Education and Research Center) utilizing liquid chromatography mass spectrometry (Shimadzu Kyoto, Japan ultra-high performance liquid chromatography—UHPLC—system and SCIEX Framingham, MA Qtrap 6500+ triple quadrupole mass spectrometer). All standard, quality controls (QC) and experimental samples were prepared and ran in duplicate using 20 μL of plasma (spiked with galunisertib if a standard or QC) adding 15 μL of 8% phosphoric acid solution, 200 μL of acetonitrile (to crash plasma proteins) spiked with tramadol as an internal standard. The standard curve was prepared as a 10-point curve from 1.0 to 1,000 ng/ml with three QCs. […] All samples and standards were processed in duplicate with the average area under the curve (AUC) being used for quantitation reporting. […] The resulting limit of quantitation (LOQ) was 1.0 ng/ml.

TGF-β = assay: Total TGF-β in plasma by ELISA; assay type: in vivo, rhesus macaques; conditions: baseline vs W1/2
Description: FIGS. 16A-16B. […] (FIG. 16A) The concentration of total TGF-β in the plasma before and after galunisertib as detected by ELISA is shown. Wilcoxon matched-pairs test was used to compare BL with W1/2 data, Significant p-value of α<0.05 (*) is shown. (FIG. 16B) No correlation is present between the concentration of TGF-β before treatment in blood and the change in Gut-SUVTot in each animal after galunisertib treatment (p=0.199; Person R=0.304).

[2] = Plasma cytokines and chemokines (MSD 24-plex); assay type: in vivo, rhesus macaques
Method: Cytokines in plasma (at 1:2 dilution) were measured using the NHP Cytokine 24-Plex kit by Meso Scale Diagnostics (MSD) according to manufacturer instructions. Frozen PBMC collected at week 6 post-infection (pre-ART), right before the first galunisertib administration (BC1), at the end of cycle 1 (AC1) and at the end of cycle 3 (AC3) were thawed in AIM V medium (ThermoFisher) with benzonase (Sigma) and plated on a FluoroSpot (CTL) plate pre-activated with 70% Ethanol and IFN-γ, TNF-α and IL-2 capture solution. Gag, pol, and env 15-mer peptides (NIH AIDS Reagents program) were prepared at two times the final concentration of 2.5 μg/ml with co-stimulatory reagents anti-CD28 10 μg/ml and anti-CD49d 10 μg/ml and added to the cells in CTL-Test™ Medium. Parallel positive […] control of PMA (20 ng/ml) and ionomycin (200 ng/mL) or mock DMSO solution was also plated with the stimulatory reagents. PBMCs were added at 300,000 cells per well. After 24 hrs, the plate was washed, and incubated with detection and tertiary solutions and shipped to CTL for scanning and QC.

In the case of `Cc1cccc(-c2nn3c(c2-c2ccnc4ccc(C(N)=O)cc24)CCC3)n1` [galunisertib, Galunisertib], the “frequency of p24-gag+ cells in TGF-β1-treated cultures” value (ACH-2 cells; ACH-2 cells, TGF-β1 + galunisertib 1 μM) is reported as “restore frequency of p24-gag+ cells”, the “frequency of p24-gag+ cells versus PMA-stimulated cultures” value (ACH-2 cells; ACH-2 cells, galunisertib in absence of exogenous TGF-β1, medium with FBS) is reported as “increase it above PMA-stimulated cultures” and the “effect on p24+ cells in X-Vivo 15 medium without FBS” value (ACH-2 cells; control experiments, U1 and ACH-2, no FBS) is reported as “absent”. For the same compound, the “PMA-induced frequency of p24-gag+ cells” value (primary CD4+ T cells) was “did not alter”, the “concentration in blood of macaques lower than average concentration in human plasma after similar dosing” value ([1]; macaque vs human plasma) was “at least 10 fold” and the “PK in rhesus macaques compared with humans” value ([1]; naïve animals, oral 2.5 or 5 mg/kg) was “substantially lower than in humans”. For the same compound, the “levels of TGF-β in blood after treatment” value (TGF-β) was “increases in the levels of TGF-β”, the “concentrations of inflammatory chemokines and cytokines in plasma” value ([2]; before and after first 2 cycles and end of last cycle) was “no changes” and the IL-10 in plasma ([2]; end of the last cycle vs before treatment) was “small increase”.
